From patent US10399948B2, “Negative allosteric modulators of metabotropic glutamate receptor 3” (Vanderbilt University, priority 2015, dated 2019)
Read-outs that look alike come from different tables or passages of the source.

Key:
Format in all cases: cell-based
rat mGlu3 = rat mGlu3 (Rattus norvegicus (Rat), UniProt P31422); test: mGlu3 Ca2+ flux assay; conditions: for IC50: NAM, glutamate EC80, >10,000 = decrease without plateau, >30,000 = no measurable activity; for remaining activity at 30 µM: read-out: rat mGlu3 Glu max (%)
Sequence of rat mGlu3 (P31422 23-879): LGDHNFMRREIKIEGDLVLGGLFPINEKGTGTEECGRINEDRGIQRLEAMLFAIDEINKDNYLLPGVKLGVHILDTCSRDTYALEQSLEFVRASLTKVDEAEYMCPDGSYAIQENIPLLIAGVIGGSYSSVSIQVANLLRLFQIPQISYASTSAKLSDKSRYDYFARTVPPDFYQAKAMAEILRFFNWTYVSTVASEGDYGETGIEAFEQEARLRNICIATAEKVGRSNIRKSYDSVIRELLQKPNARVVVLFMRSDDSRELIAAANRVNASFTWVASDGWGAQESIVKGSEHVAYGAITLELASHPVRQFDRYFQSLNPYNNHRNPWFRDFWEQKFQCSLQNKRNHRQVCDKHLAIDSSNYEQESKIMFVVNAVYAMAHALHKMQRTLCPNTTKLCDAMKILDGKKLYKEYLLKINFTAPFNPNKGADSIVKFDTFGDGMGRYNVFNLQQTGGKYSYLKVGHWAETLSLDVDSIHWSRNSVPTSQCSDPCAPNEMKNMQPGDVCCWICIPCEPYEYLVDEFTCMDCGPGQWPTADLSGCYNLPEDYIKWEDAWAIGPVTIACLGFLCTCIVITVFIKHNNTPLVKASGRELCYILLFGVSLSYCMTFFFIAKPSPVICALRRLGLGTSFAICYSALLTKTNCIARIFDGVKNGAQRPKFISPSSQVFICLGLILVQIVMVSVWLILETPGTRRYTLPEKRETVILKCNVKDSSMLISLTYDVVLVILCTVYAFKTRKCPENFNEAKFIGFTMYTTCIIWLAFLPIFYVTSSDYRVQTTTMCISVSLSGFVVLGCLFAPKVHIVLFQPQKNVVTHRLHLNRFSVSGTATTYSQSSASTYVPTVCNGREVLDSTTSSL
Experimental: Gα15/TREx cells stably expressing rat mGlu3 were plated in black-walled, clear-bottomed, poly-D-lysine coated 384-well plates in 20 μL of assay medium (DMEM containing 10% dialyzed FBS, 20 mM HEPES, 25 ng/mL tetracycline, 100 units/mL penicillin/streptomycin plus 250 ng/mL Fungizone, and 1 mM sodium pyruvate) at a density of 15K cells/well. The cells were grown overnight at 37° C. in the presence of 5% CO2. […] Dye was removed, 20 μL of assay buffer was added, and the plate was incubated for 10 minutes at room temperature.
(§1) Ca^2+ flux was measured using the Functional Drug Screening System (FDSS7000, Hamamatsu, Japan). After establishment of a fluorescence baseline for about 3 seconds, the compounds of the present invention were added to the cells, and the response in cells was measured. 2.3 minutes later an EC20 concentration of the mGlu3 receptor agonist glutamate was added to the cells, and the response of the cells was measured for 1.9 minutes; an EC80 concentration of agonist was added and readings taken for an additional 1.7 minutes. All test compounds were dissolved and diluted to a concentration of 10 mM in 100% DMSO. Compounds were then serially diluted 1:3 in DMSO into 10 point concentration response curves, transferred to daughter plates, and further diluted into assay buffer to a 2× stock. Calcium fluorescence measures were recorded as fold over basal fluorescence; raw data was then normalized to the maximal response to glutamate.
(§2) The raw data file containing all time points was used as the data source in the analysis template. This was saved by the FDSS as a tab-delimited text file. Data were normalized using a static ratio function (F/F0) for each measurement of the total 360 values per well divided by each well's initial value. Data were then reduced to peak amplitudes (Max−Initial Min) using a time range that starts approximately 3 seconds prior to the glutamate EC80 addition and continues for approximately 90 seconds. This is sufficient time to capture the peak amplitude of the cellular calcium response. Individual amplitudes were expressed as % EMax by multiplying each amplitude by 100 and then dividing the product by the mean of the amplitudes derived from the glutamate ECMax-treated wells. EC50 values for test compounds were generated by fitting the normalized values versus the log of the test compound concentration (in mol/L) using a 4 parameter logistic equation where none of the parameters were fixed. Each of the three values collected at each concentration of test compound were weighted evenly.

rat mGlu5 = rat mGlu5 (Rattus norvegicus (Rat), UniProt P31424); test: mGlu5 Ca2+ flux assay; conditions: for activity at 30 µM: read-out: rat mGlu5 Glu max (%)
Sequence of rat mGlu5 (P31424 21-1203): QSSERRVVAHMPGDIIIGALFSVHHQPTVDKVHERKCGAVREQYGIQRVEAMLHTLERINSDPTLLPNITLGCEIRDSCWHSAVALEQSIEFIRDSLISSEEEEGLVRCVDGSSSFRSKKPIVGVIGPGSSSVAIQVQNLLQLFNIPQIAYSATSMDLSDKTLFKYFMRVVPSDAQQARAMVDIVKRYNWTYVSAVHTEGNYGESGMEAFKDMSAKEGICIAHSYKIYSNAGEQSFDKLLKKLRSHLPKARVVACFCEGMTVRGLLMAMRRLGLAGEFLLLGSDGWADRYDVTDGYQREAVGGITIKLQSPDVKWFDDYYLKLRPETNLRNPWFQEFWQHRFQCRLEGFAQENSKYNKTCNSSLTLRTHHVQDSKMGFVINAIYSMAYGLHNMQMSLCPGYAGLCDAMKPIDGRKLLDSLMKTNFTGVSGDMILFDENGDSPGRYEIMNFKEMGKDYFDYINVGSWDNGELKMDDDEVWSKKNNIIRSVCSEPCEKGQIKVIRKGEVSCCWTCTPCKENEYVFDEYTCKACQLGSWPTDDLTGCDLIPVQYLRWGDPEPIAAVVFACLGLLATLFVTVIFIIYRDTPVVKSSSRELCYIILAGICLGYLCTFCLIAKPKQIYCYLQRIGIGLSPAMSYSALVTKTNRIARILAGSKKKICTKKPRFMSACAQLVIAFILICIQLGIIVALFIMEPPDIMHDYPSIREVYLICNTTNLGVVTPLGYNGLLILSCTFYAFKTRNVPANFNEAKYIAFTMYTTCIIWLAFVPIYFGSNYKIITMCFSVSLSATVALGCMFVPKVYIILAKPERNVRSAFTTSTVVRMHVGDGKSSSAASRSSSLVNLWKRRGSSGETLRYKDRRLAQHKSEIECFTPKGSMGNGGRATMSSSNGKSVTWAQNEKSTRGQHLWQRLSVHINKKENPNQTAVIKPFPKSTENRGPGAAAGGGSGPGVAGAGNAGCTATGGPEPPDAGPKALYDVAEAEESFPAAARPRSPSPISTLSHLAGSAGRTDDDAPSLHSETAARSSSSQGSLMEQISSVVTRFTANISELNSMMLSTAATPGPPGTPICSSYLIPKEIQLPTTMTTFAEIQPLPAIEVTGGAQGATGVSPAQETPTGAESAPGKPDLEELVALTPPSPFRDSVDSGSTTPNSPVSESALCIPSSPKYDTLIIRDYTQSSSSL
Experimental: (§3) HEK 293A cells stably expressing rat mGlu5 were plated in black-walled, clear-bottomed, poly-D-lysine coated 384-well plates in 20 μL of assay medium (DMEM containing 10% dialyzed FBS, 20 mM HEPES, 100 units/mL penicillin/streptomycin plus 250 ng/mL Fungizone, and 1 mM sodium pyruvate) at a density of 20K cells/well. The cells were grown overnight at 37° C. in the presence of 5% CO2. The next day, medium was removed and the cells incubated with 20 μL of […] Fluo-4, AM prepared as a 2.3 mM stock in DMSO and mixed in a 1:1 ratio with 10% (w/v) pluronic acid F-127 and diluted in assay buffer (Hank's balanced salt solution, 20 mM HEPES, and 2.5 mM probenecid) for 45 minutes at 37° C. Dye was removed, 20 μL of assay buffer was added, and the plate was incubated for 5 minutes at room temperature.
as §1, with “mGlu5” for “mGlu3”
as §2, with “EC20/EC80” for “EC80”, “90-120” for “90”

rat mGlu2 = rat mGlu2 (Rattus norvegicus (Rat), UniProt P31421); test: mGlu2 Ca2+ flux assay; conditions: NAM, glutamate EC80; >30,000 = no measurable activity
Sequence of rat mGlu2 (P31421 19-872): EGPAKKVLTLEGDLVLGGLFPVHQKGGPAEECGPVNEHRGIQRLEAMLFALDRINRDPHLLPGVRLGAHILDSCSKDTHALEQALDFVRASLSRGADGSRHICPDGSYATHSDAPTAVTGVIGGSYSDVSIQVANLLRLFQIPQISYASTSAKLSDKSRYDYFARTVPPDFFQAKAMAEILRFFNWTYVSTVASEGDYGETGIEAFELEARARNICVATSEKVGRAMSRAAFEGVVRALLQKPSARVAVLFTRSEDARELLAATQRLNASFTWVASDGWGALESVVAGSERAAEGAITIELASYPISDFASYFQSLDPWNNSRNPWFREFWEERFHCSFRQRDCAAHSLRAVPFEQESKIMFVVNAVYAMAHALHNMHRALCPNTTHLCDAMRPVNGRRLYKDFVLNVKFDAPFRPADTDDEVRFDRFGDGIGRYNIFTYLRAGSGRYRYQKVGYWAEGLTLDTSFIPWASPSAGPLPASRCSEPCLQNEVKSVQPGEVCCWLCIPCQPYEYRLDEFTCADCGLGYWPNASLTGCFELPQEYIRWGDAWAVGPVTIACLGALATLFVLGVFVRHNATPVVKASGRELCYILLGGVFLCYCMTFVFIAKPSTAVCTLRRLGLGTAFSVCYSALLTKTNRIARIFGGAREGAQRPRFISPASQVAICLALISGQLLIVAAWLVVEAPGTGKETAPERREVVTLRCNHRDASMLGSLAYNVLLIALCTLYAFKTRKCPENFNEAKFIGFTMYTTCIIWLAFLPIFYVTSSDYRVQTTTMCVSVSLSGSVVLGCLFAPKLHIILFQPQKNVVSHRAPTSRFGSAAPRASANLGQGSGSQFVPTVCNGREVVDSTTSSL
Experimental: as §3, with “Gα15 HEK293” for “HEK 293A”, “mGlu2” for “mGlu5”, “HEPES,” for “HEPES, 100 units/mL penicillin/streptomycin plus 250 ng/mL Fungizone,”, “12K” for “20K”
as §1, with “mGlu2” for “mGlu3”
as §2, with “ECMax” for “EMax”, “IC50” for “EC50”

[1] = response at 30 μM test compound as percentage of maximal response to glutamate
[2] = PAM, glutamate EC20, >10,000 = no plateau, >30,000 = no measurable activity, read-out: rat mGlu5 EC50 or IC50
[3] = PAM, response at 30 μM test compound as percentage of maximal response to glutamate

Compound | IC50 (rat mGlu3) [µM] | remaining activity at 30 µM (rat mGlu3; [1]) [%] | EC50 (rat mGlu5; [2]) [µM] | IC50 (rat mGlu2) [µM] | activity at 30 µM (rat mGlu5; [3]) [%] | EC50 (rat mGlu5) [µM] | remaining activity at 30 µM (rat mGlu3) [%] | activity at 30 µM (rat mGlu5) [%]
CC(COc1ccn(-c2ccc(F)cc2)c(=O)c1)Oc1ccccc1 (stereo not drawn) [Compound 1, 1-(4-Fluorophenyl)-4-(2-phenoxypropoxy)pyridin-2(1H)-one] | 0.728 | 0.69 | > 30 | > 30 | – | – | – | –
CC(COc1ccccc1)Oc1ccn(-c2ccc(F)cc2)c(=O)c1 (stereo not drawn) [Compound 5, 1-(4-fluorophenyl)-4-((1-phenoxypropan-2-yl)oxy)pyridin-2(1H)-one] | 1.16 | 1.6 | > 10 | > 30 | 42.5 | – | – | –
O=c1nc(OCCOc2ccccc2)ccn1-c1cccc(F)c1 [Compound 14, 1-(3-fluorophenyl)-4-(2-phenoxyethoxy)pyrimidin-2(1H)-one] | 0.296 | 1.61 | 3.54 | > 30 | 77.5 | – | – | –
O=c1nc(OCCOc2ccccc2)ccn1-c1ccc(F)c(F)c1 [Compound 15, 1-(3,4-difluorophenyl)-4-(2-phenoxyethoxy)pyrimidin-2(1H)-one] | 0.219 | 2.44 | 0.427 | > 30 | 83 | – | – | –
O=c1nc(OCCOc2ccccc2)ccn1-c1ccc(F)cc1 [Compound 17, 1-(4-Fluorophenyl)-4-(2-phenoxyethoxy)pyrimidin-2(1H)-one] | 0.211 | 1.84 | 1.19 | > 30 | 96.8 | – | – | –
O=c1cc(OCCOc2ccccc2)ccn1-c1ccc(F)cc1 [Compound 18, 1-(4-Fluorophenyl)-4-(2-phenoxyethoxy)pyridin-2(1H)-one] | 0.725 ± 0.227 | 1.45 ± 0.14 | – | > 30 | 97.3 | 0.567 | – | –
O=c1cc(OCCOc2ccccc2)ccn1-c1cccc(F)c1 [Compound 19, 1-(3-fluorophenyl)-4-(2-phenoxyethoxy)pyridin-2(1H)-one] | 0.434 | 2.01 | – | > 30 | 88 | 1.97 | – | –
O=c1cc(OCCOc2ccccc2)ccn1-c1ccc(F)c(F)c1 [Compound 20, 1-(3,4-difluorophenyl)-4-(2-phenoxyethoxy)pyridin-2(1H)-one] | 0.323 | 1.63 | – | > 30 | 91 | 0.344 | – | –
O=c1cc(OCCOc2ccccc2)ccn1-c1cc(F)cc(F)c1 [Compound 21, 1-(3,5-difluorophenyl)-4-(2-phenoxyethoxy)pyridin-2(1H)-one] | 0.799 | – | 0.818 | – | – | – | 7.25 | 28.3
N#Cc1cccc(-n2ccc(OCCOc3ccccc3)cc2=O)c1 [Compound 22, 3-(2-oxo-4-(2-phenoxyethoxy)pyridin-1(2H)-yl)benzonitrile] | 0.559 | 1.16 | 6.02 | > 30 | 87 | – | – | –
N#Cc1cc(F)cc(-n2ccc(OCCOc3ccccc3)cc2=O)c1 [Compound 23, 3-fluoro-5-(2-oxo-4-(2-phenoxyethoxy)pyridin-1(2H)-yl)benzonitrile] | 0.522 | 3.44 | 1.31 | > 30 | 26.8 | – | – | –
O=c1cc(OCCOc2ccccc2)ncn1-c1ccc(F)cc1 [Compound 28, 3-(4-Fluorophenyl)-6-(2-phenoxyethoxy)pyrimidin-4(3H)-one] | 1.27 | 10.1 | 1.22 | > 30 | 89.8 | – | – | –
O=c1cc(OCCOc2ccccc2F)ccn1-c1ccc(F)cc1 [Compound 30, 4-(2-(2-fluorophenoxy)ethoxy)-1-(4-fluorophenyl)pyridin-2(1H)-one] | 0.897 | 2.48 | 1.87 | > 30 | 92.8 | – | – | –
